Results: US9067967B2, “Peptides useful in the treatment and care of the skin and mucous membranes and their use in cosmetic or pharmaceutical compositions” (LIPOTEC, S.A., priority 2011, dated 2015)

Assays:
Format in all cases: cell-based
human AQP-3 promoter = test: Modulation of the human AQP-3 promoter activity (luciferase reporter in stably transfected keratinocytes); settings: peptide at 0.5 mg/mL, 16-24 hours; normalized to negative control (carrier = 100%)
Description: The modulation capacity of the promoter of the AQP-3 gene was evaluated in a cell line of keratinocytes stably transfected with the luciferase gene under the regulation of the human AQP-3 promoter. 20,000 to 30,000 cells per well were seeded and incubated for 24 hours in DMEM medium, after which the peptides of the invention were added at 0.5 mg/mL and were incubated for another 16-24 hours. The DMEM medium (carrier) was used as a negative control. The measurement of the promoter's activity was carried out using the Steady-Glo® Luciferase Assay System (PROMEGA) kit following the manufacturer's instructions. The luminescence values were read on a luminometer at 630 nm and the activity of the promoter was determined, which was normalized with regards to the values of the negative control.

AQP-3 gene = test: Relative quantification of AQP-3 mRNA by quantitative real time PCR in human epidermal keratinocytes; settings: 0.1 mg/mL, 16-24 hours; normalized to untreated cells (carrier = 100%)
Description: The expression levels of the gene AQP-3 were measured by PCR in quantitative real time. A human keratinocyte cell line from adult skin was incubated at a density of 10,000 to 20,000 cells per well in EpiLife™ medium (Cascade Biologics) for 3-5 days and they were subsequently incubated with the peptides of the invention for another 16-24 hours, after which the cells were lysed and the RNA was extracted. The PCR was carried out in quantitative real time using the Taqman® Gene Expression Cells-to-CT (Applied Biosystems) kit according to the manufacturer's instructions and with the appropriate probes (TaqMan® Hs00185020_m1 probe for the AQP-3 gene and Taqman® Hs99999901_s1 probe for the eukaryotic ribosomal subunit 18S, the endogenous control of expression) and the values were normalized with regards to the basal levels of AQP-3 mRNA of the untreated cells (carrier).

[1] = tested on: human dermal fibroblasts (HDFa); test: Stimulation of collagen type I synthesis in human dermal fibroblasts (ELISA); settings: 48 hours, carrier = 0%
Description: The ability of the peptides of the invention to stimulate collagen type I synthesis in human dermal fibroblasts (HDFa, Cascade Biologics) was evaluated in culture using ELISA (enzyme-linked immunosorbent assay). The fibroblasts grew in M106 supplemented with specific factors for their growth. 50,000 cells per well were seeded and incubated at 37° C., 5% CO2, with humidified air. After 24 hours the peptides of the invention were added, and were incubated for another 48 hours, after which the supernatants were collected.
96-well plates were covered with 50 μL of a standard bovine collagen type I (Sigma) or with the previously collected supernatants. The collagen was absorbed onto the wells throughout the night at 4° C. in a humidified atmosphere. The plates were washed three times and were blocked for one hour with 3% bovine serum albumin, after which they were incubated with a primary anti-collagen type I anti-body (Sigma) for 2 hours. Subsequently, the secondary antibody, goat anti-mouse IgG-HRP (Molecular Probes) was added. The plates were incubated with the […] for 30 minutes under stirring and the reaction was stopped by adding 3 M of H2SO4. The absorbance was measured at 490 nm in a plate reader (Genios, Tecan) and the concentration of collagen was determined by comparing it with a standard linear regression line.

[2] = tested on: human epidermal keratinocytes; test: Proliferation of human epidermal keratinocytes (calcein-AM fluorescence); settings: 24 hours, carrier = 0%
Description: Cell proliferation was evaluated by a fluorescence-based cell viability method, in which the live cells are distinguished from the dead cells by the enzymatic conversion of calcein-AM to its fluorescent form.
Human keratinocytes were cultivated in DMEM supplemented with fetal bovine serum (FBS, Cultek) until confluence is achieved. The cells were then separated using trypsin and were seeded in 96-well plates. After 24 hours of incubation in DMEM at 37° C. in a humidified atmosphere at 5% CO2 a fresh medium was added with different concentrations of the product of the invention. Cells treated with DMEM as a negative control were used. The cells were incubated for another 24 hours under the same conditions and the medium was substituted by 100 μl of calcein-AM (Molecular Probes) at 0.4 μM diluted in phosphate buffered saline (PBS, Sigma). After 30 minutes of incubation at 37° C. the fluorescence was measured at excitation 485 nm 1 and emission 530 nm (λem) in a plate reader (Genios Tecan). The total growth percentage was calculated as T/C×100 wherein T is the fluorescence of the wells treated with the peptides of the invention and C the fluorescence of the control wells treated with DMEM.

| Activity of the AQP-3 promoter (%) (human AQP-3 promoter) | Substance | other results |
| --- | --- | --- |
| 133 | Ac-L-Ser-L-Pro-L-Ala-L-Val-Gly-L-Gln-NH2 (Ac-SPAVGQ-NH2) [Ac-SEQ ID 39-NH2] |  |
| 129 | Ac-L-Ser-L-Val-L-Ala-L-Val-Gly-L-Gln-NH2 (Ac-SVAVGQ-NH2) [Ac-SEQ ID 15-NH2] | % relative quantity AQP-3 mRNA (AQP-3 gene): 162% |
| 123 | Ac-L-Tyr-L-Val-L-Ala-Gly-Gly-L-Gln-NH2 (Ac-YVAGGQ-NH2) [Ac-SEQ ID 42-NH2] |  |
| 138 | Ac-L-Ser-L-Val-L-Ala-L-Glu-Gly-L-Gln-NH2 (Ac-SVAEGQ-NH2) [Ac-SEQ ID 12-NH2] |  |
| 112 | Ac-L-Tyr-L-Val-L-Ala-L-Glu-Gly-Gly-NH2 (Ac-YVAEGG-NH2) [Ac-SEQ ID 56-NH2] |  |
| 120 | Ac-L-Ser-L-Pro-L-Ala-Gly-Gly-L-His-NH2 (Ac-SPAGGH-NH2) [Ac-SEQ ID 45-NH2] |  |
| 135 | Ac-L-Tyr-L-Val-L-Ala-L-Glu-Gly-L-Pro-NH2 (Ac-YVAEGP-NH2) [Ac-SEQ ID 32-NH2] |  |
| 121 | Ac-L-Ser-L-Val-L-Ala-L-Val-Gly-L-Pro-NH2 (Ac-SVAVGP-NH2) [Ac-SEQ ID 17-NH2] |  |
| 127 | Ac-L-Ser-L-Val-L-Ala-L-Val-Gly-Gly-NH2 (Ac-SVAVGG-NH2) [Ac-SEQ ID 16-NH2] |  |
| 121 | Ac-L-Tyr-L-Pro-L-Ala-L-Glu-Gly-L-Pro-NH2 (Ac-YPAEGP-NH2) [Ac-SEQ ID 24-NH2] |  |
| 135 | Ac-L-Ser-L-Pro-L-Ala-Gly-Gly-L-Pro-NH2 (Ac-SPAGGP-NH2) [Ac-SEQ ID 10-NH2] | % relative quantity AQP-3 mRNA (AQP-3 gene): 200%; % Increase in collagen type I synthesis ([1]; 0.01 mg/mL): 36%; % Increase in collagen type I synthesis ([1]; 0.1 mg/mL): 58%; % Stimulation of proliferation ([2]; 0.16 mg/mL): 24%; % Stimulation of proliferation ([2]; 0.62 mg/mL): 28%; % Stimulation of proliferation ([2]; 2.50 mg/mL): 31% |
| 156 | Ac-L-Ser-L-Val-L-Ala-Gly-Gly-Gly-NH2 (Ac-SVAGGG-NH2) [Ac-SEQ ID 38-NH2] |  |
| 122 | Ac-L-Tyr-L-Pro-L-Ala-Gly-Gly-L-Gln-NH2 (Ac-YPAGGQ-NH2) [Ac-SEQ ID 43-NH2] |  |
| 126 | Ac-L-Ser-L-Pro-L-Ala-L-Val-Gly-Gly-NH2 (Ac-SPAVGG-NH2) [Ac-SEQ ID 40-NH2] |  |
| 124 | Ac-L-Ser-L-Val-L-Ala-Gly-Gly-L-His-NH2 (Ac-SVAGGH-NH2) [Ac-SEQ ID 41-NH2] |  |
| 121 | Ac-L-Ser-L-Pro-L-Ala-L-Glu-Gly-L-Gln-NH2 (Ac-SPAEGQ-NH2) [Ac-SEQ ID 5-NH2] |  |
| 136 | Ac-L-Tyr-L-Val-L-Ala-Gly-Gly-L-His-NH2 (Ac-YVAGGH-NH2) [Ac-SEQ ID 34-NH2] |  |
| 115 | Ac-L-Ser-L-Val-L-Ala-Gly-Gly-L-Gln-NH2 (Ac-SVAGGQ-NH2) [Ac-SEQ ID 50-NH2] |  |
| 152 | Ac-L-Ser-L-Pro-L-Ala-Gly-Gly-L-Gln-NH2 (Ac-SPAGGQ-NH2) [Ac-SEQ ID 8-NH2] |  |

| Activity of the AQP-3 promoter (%) (human AQP-3 promoter) | Substance | other results |
| --- | --- | --- |
| 112 | Ac-L-Ser-L-Val-L-Ala-L-Glu-Gly-L-His-NH2 (Ac-SVAEGH-NH2) [Ac-SEQ ID 58-NH2] |  |
| 119 | Ac-L-Ser-L-Val-L-Ala-L-Glu-Gly-Gly-NH2 (Ac-SVAEGG-NH2) [Ac-SEQ ID 46-NH2] |  |
| 116 | Ac-L-Ser-L-Pro-L-Ala-L-Val-Gly-L-Pro-NH2 (Ac-SPAVGP-NH2) [Ac-SEQ ID 49-NH2] |  |
| 150 | Ac-L-Tyr-L-Val-L-Ala-Gly-Gly-L-Pro-NH2 (Ac-YVAGGP-NH2) [Ac-SEQ ID 35-NH2] |  |
| 120 | Ac-L-Tyr-L-Val-L-Ala-L-Val-Gly-Gly-NH2 (Ac-YVAVGG-NH2) [Ac-SEQ ID 36-NH2] |  |
| 122 | Ac-L-Tyr-L-Pro-L-Ala-L-Val-Gly-L-Pro-NH2 (Ac-YPAVGP-NH2) [Ac-SEQ ID 31-NH2] |  |
| 129 | Ac-L-Tyr-L-Val-L-Ala-Gly-Gly-Gly-NH2 (Ac-YVAGGG-NH2) [Ac-SEQ ID 33-NH2] |  |
| 124 | Ac-L-Ser-L-Pro-L-Ala-L-Glu-Gly-Gly-NH2 (Ac-SPAEGG-NH2) [Ac-SEQ ID 6-NH2] |  |
| 125 | Ac-L-Tyr-L-Pro-L-Ala-L-Val-Gly-Gly-NH2 (Ac-YPAVGG-NH2) [Ac-SEQ ID 29-NH2] |  |
| 129 | Ac-L-Tyr-L-Pro-L-Ala-L-Val-Gly-L-Gln-NH2 (Ac-YPAVGQ-NH2) [Ac-SEQ ID 28-NH2] |  |
| 132 | Ac-L-Tyr-L-Pro-L-Ala-Gly-Gly-Gly-NH2 (Ac-YPAGGG-NH2) [Ac-SEQ ID 25-NH2] |  |
| 144 | Ac-L-Ser-L-Val-L-Ala-Gly-Gly-L-Pro-NH2 (Ac-SVAGGP-NH2) [Ac-SEQ ID 13-NH2] |  |
| 117 | Ac-L-Ser-L-Pro-L-Ala-L-Glu-Gly-L-His-NH2 (Ac-SPAEGH-NH2) [Ac-SEQ ID 48-NH2] |  |
| 121 | Ac-L-Tyr-L-Pro-L-Ala-L-Val-Gly-L-His-NH2 (Ac-YPAVGH-NH2) [Ac-SEQ ID 30-NH2] |  |
| 114 | Ac-L-Tyr-L-Pro-L-Ala-Gly-Gly-L-Pro-NH2 (Ac-YPAGGP-NH2) [Ac-SEQ ID 26-NH2] |  |
| 125 | Ac-L-Tyr-L-Pro-L-Ala-L-Glu-Gly-Gly-NH2 (Ac-YPAEGG-NH2) [Ac-SEQ ID 23-NH2] |  |
| 135 | Ac-L-Tyr-L-Pro-L-Ala-L-Glu-Gly-L-Gln-NH2 (Ac-YPAEGQ-NH2) [Ac-SEQ ID 22-NH2] | % relative quantity AQP-3 mRNA (AQP-3 gene): 229% |
| 120 | Ac-L-Tyr-L-Val-L-Ala-L-Glu-Gly-L-His-NH2 (Ac-YVAEGH-NH2) [Ac-SEQ ID 44-NH2] |  |
